Results published in PubChem BioAssay (NCI).
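Where inhibition never reached the appropriate level, the endpoint shown equals the highest concentration tested. Otherwise, values were interpolated linearly from a five-concentration, 48-hour dose response in 96-well plates. Abbreviation: GI50, concentration required for 50% inhibition of growth. TGI: total growth inhibition.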

The molecules below were run on MDA-MB-468 breast (assay: inhibition of tumour cell growth, NCI panel, 48 h).

Row | Structure (SMILES) | GI50 [µM] | TGI [µM]
1 | O=[N+]([O-])c1cc([N+](=O)[O-])c(Cl)cc1Cl | 1.66 | 3.38
2 | O=C1/C(=C/c2ccc(O)cc2)COc2ccc(O)c(O)c21 | 1.99 | 5.69
3 | COc1cnc2c(c1)C(=O)c1c-2n(CCCN2CCC(O)CC2)c(=O)c2cc(Cl)ccc12 | 0.521 | 10.8
4 | CN1CCN(c2nc(-c3csc(-c4cccs4)n3)cc3ccccc23)CC1 | 1.69 | 3.39
5 | Cc1nc2cc(Nc3nc(Nc4ccc(F)cc4)nc(N4CCOCC4)n3)ccc2n1Cc1ccccc1 | 1.52 | 4.28
6 | CC(=O)/C=C/c1ccc(OCc2ccc(Cl)cc2)cc1 | 161 | 872
7 | CCCCCCCCCCCCCC[n+]1ccc(C)cc1 | 0.207 | 0.808
8 | Cc1cc(O)c(C2=NN(c3ccc(S(N)(=O)=O)cc3)C(/C=C/c3ccccc3)C2)cc1Cl (configuration not stated) | 3.94 | 13.8
9 | COc1cc2c(c(OC)c1OC)-c1ccc(N=NC(N)=S)c(=O)cc1[C@@H](NC(C)=O)CC2 | 0.301 | 
10 | Cc1cccc2c3c(sc12)C(c1ccc(F)cc1)C(C#N)=C(N)O3 (configuration not stated) | 0.0315 | 0.551
11 | Cn1cc(C2=C(Nc3ccccc3)C(=O)NC2=O)c2ccccc21 | > 23 | > 25
12 | COc1ccc(NC2=C(Cl)C(=O)C(C)=C(C)C2=O)cc1 | 1.29 | 2.75
13 | CCCCCCNCc1cc(C(C)(C)C)cc(CNCCCCCC)c1O | 1.59 | 3.01
14 | Cc1[nH]c2cc(F)ccc2c1-c1nc2c3cccnc3c3ncccc3c2[nH]1 | 0.0273 | 0.0828
15 | CC(C)C(=O)Nc1ccc(-c2nc(-c3cccc(O)c3)c(-c3ccnc(Br)c3)[nH]2)cc1 | 0.795 | 2.74
16 | CN(CCC(=O)/C(=C\c1ccccc1)c1ccc(Cl)cc1)Cc1ccccc1 | 2.14 | 5.96
17 | NC(CSSCC(N)C(=O)O)C(=O)O (configuration not stated) | > 100 | > 100

Row | Structure (SMILES) | GI50 [µM] | TGI [µM]
18 | CC(=O)O[C@H]1C[C@@H]2OC3C=C(C)CCC3(C)[C@@]1(C)[C@@]21CO1 (some centres not stated) | 0.284 | 1.57
19 | NC(=O)c1sc(-n2cnc3cc(C(F)(F)F)ccc32)cc1OCc1ccccc1Br | > 11.5 | > 23.4
20 | CC1=C2C(=C[C@@](C)(COC(=O)c3ccc(S(=O)(=O)F)cc3)[C@@H]2O)C(=O)[C@](C)(O)C12CC2 | 0.53 | 2.17
21 | NC1(Cc2ccc(Cl)cc2)CCN(c2ncnc3[nH]ccc23)CC1 | 1.92 | 12.8
22 | Cc1nc2sc(C(=O)c3ccc(Cl)cc3)c(N)c2c(-c2ccccc2Cl)c1C(=O)Nc1ccccc1 | 17.5 | 37
23 | COc1ccc(-c2c3c(nc4n[nH]c(-c5ccc(Cl)cc5)c24)-c2ccccc2C(=O)C3=O)cc1 | 1.65 | 3.47
24 | O=C1N(Cc2ccccc2Cl)c2ccccc2C12NN=C(c1cccc(Cl)c1)S2 (configuration not stated) | 1.91 | 3.77
25 | COC(=O)C(C(=O)OC)C(Br)C(Br)C(Br)c1ccccc1 (configuration not stated) | 2.06 | 6.18
26 | CCCCNc1ccc(Nc2ccccc2)cc1 | 1.81 | 9.42
27 | O=C(N/N=C/c1cccs1)c1[nH]c2ccc(Br)cc2c1-c1ccccc1 | 0.0881 | 4.26
28 | COc1ccc(CCN2CCC(CN(C)Cc3cnn(-c4ccccc4)c3)CC2)cc1 | 4.99 | 21.3
29 | Cc1ccc(C2NC(=O)c3ccccc3N2)c(C)c1 (configuration not stated) | 6.4 | > 100
30 | O=C1c2cccnc2C(=O)c2c1c(C(=O)OCCCN1CCCCC1)c1ccccn21 | 0.314 | 14.5
31 | COCCOCCOCc1n(Cc2ccc3ccccc3n2)c2ccccc2[n+]1Cc1ccc2ccccc2n1 | 0.19 | 2.25
32 | COc1cc(Cl)cc(-c2nn(-c3cccc(NC(=O)Nc4ccc(Cl)c(Cl)c4)c3)cc2-c2ccncc2)c1 | 1.74 | 7.37
33 | CC(C)(C)OC(=O)NCc1cccc(N=C=S)c1 | 14.8 | 48.1
34 | Cc1nc2ccccc2nc1N=Nc1ccccc1 | 21 | > 100
